pIC50: −log10 of the molar value. Like-named read-outs stand apart in the source and are kept apart here.
Columns and labels:
[1] = system: DLD-1; test: cells; format: cell-based
[2] = system: RKO; test: cells; format: cell-based
[3] = system: ECFC/ADSC co-culture cell nuclei number
[4] = system: HCT116; test: cells; format: cell-based
[5] = system: SNU-C1; test: cells; format: cell-based
[6] = system: Colo320; test: cells; format: cell-based
[7] = system: HT-29; test: cells; format: cell-based
[8] = system: SW480; test: cells; format: cell-based
[9] = system: HCT116 cells treated with a GSK3β inhibitor; test: cells; format: cell-based; conditions: for IC50/EC50, GSK3b inh pretreated_Viability ATP HCT116 (assay number 26): GSK3b inh pretreated
[10] = system: HeLa cells; test: cells; format: cell-based;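 as to Hela CellCycMod PI 4N summarized IC50: value tracks stimulation of 4N DNA content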
[11] = system: endothelial tube formation in co-cultures of ECFCs and ADSCs treated with VEGF; test: cells; format: cell-based, human

SMILES | IC50/EC50, Basal_Viability ATP DLD-1 (assay number 23) ([1]; basal) | IC50/EC50, Basal_Viability ATP RKO (assay number 29) ([2]; basal) | IC50/EC50, VEGF_ADSC\ECFC Angio Hoechst NucArea (assay number 3) [3] | IC50/EC50, Basal_Viability ATP HCT116 (assay number 25) ([4]; basal) | IC50/EC50, Basal_Viability ATP SNU-C1 (assay number 30) ([5]; basal) | IC50/EC50, Basal_Viability ATP Colo 320 (assay number 27) ([6]; basal) | IC50/EC50, Basal_Viability ATP HT-29 (assay number 28) ([7]; basal) | IC50/EC50, Basal_Viability ATP SW480 (assay number 24) ([8]; basal) | IC50/EC50, GSK3b inh pretreated_Viability ATP HCT116 (assay number 26) [9] | IC50/EC50, Hela CellCycMod PI 2N (assay number 14) ([10]; 2N) | IC50/EC50, Hela CellCycMod PI 4N (assay number 16) ([10]; 4N) | IC50/EC50, Hela CellCycMod PI Cell Number (assay number 18) [10] | IC50/EC50, Hela CellCycMod PI MI (assay number 17) ([10]; MI) | IC50/EC50, Hela CellCycMod PI S Phase (assay number 15) [10] | IC50/EC50, VEGF_ADSC\ECFC Angio CD31 TubeArea (assay number 2) [11] | other results
Cc1cc(N)c2ccccc2[n+]1CCCCCCCCCC[n+]1c(C)cc(N)c2ccccc21 [NCGC00015339-07] | 5.7172 µM | 2.4541 µM | > 10 µM | > 20 µM | 1.2926 µM | 15.8701 µM | > 20 µM | 3.8338 µM | > 20 µM | > 10 µM | > 10 µM | > 10 µM | > 10 µM | > 10 µM | > 10 µM | 
O=C1C2CC=CCC2C(=O)N1SC(Cl)(Cl)Cl (stereo not drawn) [NCGC00091034-10] |  |  |  |  |  |  |  |  |  |  |  |  |  |  |  | pIC50 ([1]; assay number 23, basal, read-out: Basal_Viability ATP DLD-1 summarized IC50): 6.46; pIC50 ([2]; assay number 29, basal, read-out: Basal_Viability ATP RKO summarized IC50): 6.40; pIC50 ([3]; read-out: VEGF_ADSC\ECFC Angio Hoechst NucArea summarized IC50): < 5.00; pIC50 ([4]; assay number 25, basal, read-out: Basal_Viability ATP HCT116 summarized IC50): 5.75; pIC50 ([5]; assay number 30, basal, read-out: Basal_Viability ATP SNU-C1 summarized IC50): 6.04; pIC50 ([6]; assay number 27, basal, read-out: Basal_Viability ATP Colo 320 summarized IC50): 6.51; pIC50 ([7]; assay number 28, basal, read-out: Basal_Viability ATP HT-29 summarized IC50): 6.30; pIC50 ([8]; assay number 24, basal, read-out: Basal_Viability ATP SW480 summarized IC50): 7.10; pIC50 ([9]; assay number 26, GSK3b inhibitor pretreated, read-out: GSK3b inh pretreated_Viability ATP HCT116 summarized IC50): 5.66; pIC50 ([10]; assay number 14, 2N, read-out: Hela CellCycMod PI 2N summarized IC50): < 5.00; pIC50 ([10]; assay number 15, S phase, read-out: Hela CellCycMod PI S Phase summarized IC50): < 5.00; pIC50 ([10]; assay number 16, 4N, read-out: Hela CellCycMod PI 4N summarized IC50): < 5.00; pIC50 ([10]; assay number 17, MI, read-out: Hela CellCycMod PI MI summarized IC50): 5.21; pIC50 ([10]; assay number 18, cell number, read-out: Hela CellCycMod PI Cell Number summarized IC50): 5.75; pIC50 ([11]; read-out: VEGF_ADSC\ECFC Angio CD31 TubeArea summarized IC50): < 5.00
OC[C@H]1O[C@@H](n2cnc3c(=S)nc[nH]c32)[C@H](O)[C@@H]1O [NCGC00096122-05] | 0.06302 µM | 0.01437 µM | > 10 µM | 0.02858 µM | 2.185 µM | 1.064 µM | 0.1181 µM | 0.02867 µM | 0.5044 µM | > 10 µM | > 10 µM | > 10 µM | > 10 µM | > 10 µM | 1.4206 µM | 
O=C(Nc1ccc(Br)cc1)c1cc(Br)cc(Br)c1O [NCGC00159476-09] | 0.001 µM | 0.003 µM | > 10 µM | 0.003 µM | 0.001 µM | 0.003 µM | 0.001 µM | 0.001 µM | 0.001 µM | > 10 µM | > 10 µM | > 10 µM | > 10 µM | > 10 µM | 1.8138 µM | 
CC(C)=CCOc1ccc(/C=C/C(=O)c2ccc(OCC=C(C)C)cc2OCC(=O)O)cc1 [NCGC00159481-03] |  |  |  |  |  |  |  |  |  |  |  |  |  |  |  | Basal_Viability ATP DLD-1 IC50/EC50 [1]: 5.3614 µM; Basal_Viability ATP RKO IC50/EC50 [2]: 5.5335 µM; VEGF_ADSC\ECFC Angio Hoechst NucArea IC50/EC50 [3]: > 10 µM; Basal_Viability ATP HCT116 IC50/EC50 [4]: > 6.667 µM; Basal_Viability ATP SNU-C1 IC50/EC50 [5]: 7.4428 µM; Basal_Viability ATP Colo 320 IC50/EC50 [6]: 1.5527 µM; Basal_Viability ATP HT-29 IC50/EC50 [7]: 5.3973 µM; Basal_Viability ATP SW480 IC50/EC50 [8]: 2.9193 µM; GSK3b inh pretreated_Viability ATP HCT116 IC50/EC50 [9]: 3.0351 µM; Hela CellCycMod PI 2N IC50/EC50 [10]: > 10 µM; Hela CellCycMod PI 4N IC50/EC50 [10]: > 10 µM; Hela CellCycMod PI Cell Number IC50/EC50 [10]: > 10 µM; Hela CellCycMod PI MI IC50/EC50 [10]: > 10 µM; Hela CellCycMod PI S Phase IC50/EC50 [10]: > 10 µM; VEGF_ADSC\ECFC Angio CD31 TubeArea IC50/EC50 [11]: > 10 µM

— PMC4503722, “Novel Phenotypic Outcomes Identified for a Public Collection of Approved Drugs from a Publicly Accessible Panel of Assays” (PLoS ONE, 2015)
